Patent US12678446B2 (PFIZER INC., priority 2020, dated 2026)
pEC50: −log10 of the molar value.

What was measured:
[1] = system: RSV (RSV A2 ECACC, 0709161v); assay: RSV plaque reduction assay; assay type: cell-based, respiratory syncytial virus; details: human respiratory syncytial virus, HepG2, read-out: RSV A2 Plaque EC50, RSV A2 in Hep-G2 cells; mean of at least two experiments unless noted (n = 1)
Outline: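 Eight-point compound dilutions were premixed with RSV A2 (100 PFU/well) and applied to confluent Hep-G2 cells for 2 h, followed by a 2-day incubation at 37° C. under compound-containing 0.8% CMC overlay. EC50 comes from immunostained plaque counts relative to untreated virus wells, averaged over ≥2 runs.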

cell toxicity CC50 = assay type: cell-based; details: human; Hep-G2 cells; mean of at least two experiments; read-out: Cell Cytotoxicity CC50

`Cc1ccc(-c2nn3c(c2C(=O)N[C@H]2N=C(c4ccccc4)c4cccc(F)c4NC2=O)O[C@H](C)CC3)cn1` [Example 77, (5R)-5-Methyl-2-(6-methylpyridin-3-yl)-N-[(3S)-9-fluoro-2-oxo-5-phenyl-1,3-dihydro-1,4-benzodiazepin-3-yl]-6,7-dihydro-5H-pyrazolo[5,1-b][1,3]oxazine-3-carboxamide] gave a pEC50 [1] of 6.80 and a CC50 (cell toxicity CC50) of over 25000 nM.
With `CC(O)Cc1ccc(-c2nn3c(c2C(=O)N[C@H]2N=C(c4ccccc4)c4cccc(F)c4NC2=O)O[C@H](C)CC3)cn1` (stereo partly drawn) [Example 78, (5R)-2-[6-(2-Hydroxypropyl)pyridin-3-yl]-5-methyl-N-[(3S)-9-fluoro-2-oxo-5-phenyl-1,3-dihydro-1,4-benzodiazepin-3-yl]-6,7-dihydro-5H-pyrazolo[5,1-b][1,3]oxazine-3-carboxamide] the pEC50 [1] was 6.66 and the CC50 (cell toxicity CC50) was over 25000 nM.
`Cc1cc(-c2nn3c(c2C(=O)N[C@H]2N=C(c4ccccc4)c4cccc(F)c4NC2=O)O[C@H](C)CC3)c(F)cn1` [Example 79, (5R)-2-(5-Fluoro-2-methylpyridin-4-yl)-N-[(3S)-9-fluoro-2-oxo-5-phenyl-1,3-dihydro-1,4-benzodiazepin-3-yl]-5-methyl-6,7-dihydro-5H-pyrazolo[5,1-b][1,3]oxazine-3-carboxamide] gave a pEC50 [1] of 6.94 and a CC50 (cell toxicity CC50) of over 25000 nM.
Compound `O=C(N[C@H]1N=C(c2ccccc2)c2cccc(F)c2NC1=O)c1c(-c2ccncc2F)nn2c1OCCC2` [Example 80, N-[(3S)-9-fluoro-2-oxo-5-phenyl-1,3-dihydro-1,4-benzodiazepin-3-yl]-2-(3-fluoropyridin-4-yl)-6,7-dihydro-5H-pyrazolo[5,1-b][1,3]oxazine-3-carboxamide] has a pEC50 [1] of 7.19 and a CC50 (cell toxicity CC50) of over 25000 nM.
Work on `C[C@@H]1CCn2nc(-c3ccccc3)c(C(=O)N[C@H]3N=C(c4ccccc4)c4cccc(F)c4NC3=O)c2O1` [Example 81, (5R)-5-Methyl-2-phenyl-N-[(3S)-9-fluoro-2-oxo-5-phenyl-1,3-dihydro-1,4-benzodiazepin-3-yl]-6,7-dihydro-5H-pyrazolo[5,1-b][1,3]oxazine-3-carboxamide] yielded a pEC50 [1] of 7.08 and a CC50 (cell toxicity CC50) of over 25000 nM.
Work on `C[C@@H]1CCn2nc(-c3ccc(F)cc3F)c(C(=O)N[C@H]3N=C(c4ccccc4)c4cccc(F)c4NC3=O)c2O1` [Example 82, (5R)-2-(2,4-Difluorophenyl)-5-methyl-N-[(3S)-9-fluoro-2-oxo-5-phenyl-1,3-dihydro-1,4-benzodiazepin-3-yl]-6,7-dihydro-5H-pyrazolo[5,1-b][1,3]oxazine-3-carboxamide] yielded a pEC50 [1] of 7.51 and a CC50 (cell toxicity CC50) of over 25000 nM.
In the case of `C[C@@H]1CCn2nc(-c3ccc4c(cnn4C)c3)c(C(=O)N[C@H]3N=C(c4ccccc4)c4cccc(F)c4NC3=O)c2O1` [Example 83, (5R)-5-Methyl-2-(1-methylindazol-5-yl)-N-[(3S)-9-fluoro-2-oxo-5-phenyl-1,3-dihydro-1,4-benzodiazepin-3-yl]-6,7-dihydro-5H-pyrazolo[5,1-b][1,3]oxazine-3-carboxamide], the pEC50 [1] was 6.94 and the CC50 (cell toxicity CC50) was over 25000 nM.
For `CCn1cc(-c2nn3c(c2C(=O)N[C@H]2N=C(c4ccccc4)c4cccc(F)c4NC2=O)O[C@H](C)CC3)cn1` [Example 84, (5R)-2-(1-Ethylpyrazol-4-yl)-N-[(3S)-9-fluoro-2-oxo-5-phenyl-1,3-dihydro-1,4-benzodiazepin-3-yl]-5-methyl-6,7-dihydro-5H-pyrazolo[5,1-b][1,3]oxazine-3-carboxamide], the pEC50 [1] was 7.15 and the CC50 (cell toxicity CC50) was over 25000 nM.
Work on `C[C@@H]1CCn2nc(-c3ccc(CC(C)(C)O)nc3)c(C(=O)N[C@H]3N=C(c4ccccc4)c4cccc(F)c4NC3=O)c2O1` [Example 85, (5R)-2-[6-(2-Hydroxy-2-methylpropyl)pyridin-3-yl]-5-methyl-N-[(3S)-9-fluoro-2-oxo-5-phenyl-1,3-dihydro-1,4-benzodiazepin-3-yl]-6,7-dihydro-5H-pyrazolo[5,1-b][1,3]oxazine-3-carboxamide] yielded a pEC50 [1] of 6.92 and a CC50 (cell toxicity CC50) of over 25000 nM.
In the case of `C[C@@H]1CCn2nc(-c3ccc(N4C[C@H]5C[C@@H]4CO5)nc3)c(C(=O)N[C@H]3N=C(c4ccccc4)c4cccc(F)c4NC3=O)c2O1` [Example 86, (5R)-5-Methyl-N-[(3S)-9-fluoro-2-oxo-5-phenyl-1,3-dihydro-1,4-benzodiazepin-3-yl]-2-[6-[(1R,4R)-2-oxa-5-azabicyclo[2.2.1]heptan-5-yl]pyridin-3-yl]-6,7-dihydro-5H-pyrazolo[5,1-b][1,3]oxazine-3-carboxamide], the pEC50 [1] was 7.36 and the CC50 (cell toxicity CC50) was over 25000 nM.
`Cc1cc(NC(C)C)ncc1-c1nn2c(c1C(=O)N[C@H]1N=C(c3ccccc3)c3cccc(F)c3NC1=O)O[C@H](C)CC2` [Example 92, (5R)-5-Methyl-2-[4-methyl-6-(propan-2-ylamino)pyridin-3-yl]-N-[(3S)-9-fluoro-2-oxo-5-phenyl-1,3-dihydro-1,4-benzodiazepin-3-yl]-6,7-dihydro-5H-pyrazolo[5,1-b][1,3]oxazine-3-carboxamide] gave a pEC50 [1] of 6.88 and a CC50 (cell toxicity CC50) of over 25000 nM.
In the case of `C[C@H]1CCn2nc(-c3ccc(N4C[C@H]5C[C@@H]4CO5)nc3)c(C(=O)N[C@H]3N=C(c4ccccc4)c4cccc(F)c4NC3=O)c2O1` [Example 94, (5S)-5-Methyl-N-[(3S)-9-fluoro-2-oxo-5-phenyl-1,3-dihydro-1,4-benzodiazepin-3-yl]-2-[6-[(1R,4R)-2-oxa-5-azabicyclo[2.2.1]heptan-5-yl]pyridin-3-yl]-6,7-dihydro-5H-pyrazolo[5,1-b][1,3]oxazine-3-carboxamide], the pEC50 [1] was 7.36 and the CC50 (cell toxicity CC50) was over 25000 nM.
In the case of `C[C@@H]1CCn2nc(Nc3ccccc3)c(C(=O)N[C@H]3N=C(c4ccccc4)c4cccc(F)c4NC3=O)c2O1` [Example 95, (5R)-2-Anilino-5-methyl-N-[(3S)-9-fluoro-2-oxo-5-phenyl-1,3-dihydro-1,4-benzodiazepin-3-yl]-6,7-dihydro-5H-pyrazolo[5,1-b][1,3]oxazine-3-carboxamide], the pEC50 [1] was 6.45 and the CC50 (cell toxicity CC50) was over 25000 nM.
`C[C@@H]1CCn2nc(Nc3ccccc3)c(C(=O)N[C@H]3N=C(c4ccccc4)c4ccccc4NC3=O)c2O1` [Example 96, (5R)-2-Anilino-5-methyl-N-[(3S)-2-oxo-5-phenyl-1,3-dihydro-1,4-benzodiazepin-3-yl]-6,7-dihydro-5H-pyrazolo[5,1-b][1,3]oxazine-3-carboxamide] gave a pEC50 [1] of 6.33 and a CC50 (cell toxicity CC50) of over 25000 nM.
`C[C@@H]1CCn2nc(Nc3ccc(F)cc3)c(C(=O)N[C@H]3N=C(c4ccccc4)c4cccc(F)c4NC3=O)c2O1` [Example 97, (5R)-2-(4-Fluoroanilino)-N-[(3S)-9-fluoro-2-oxo-5-phenyl-1,3-dihydro-1,4-benzodiazepin-3-yl]-5-methyl-6,7-dihydro-5H-pyrazolo[5,1-b][1,3]oxazine-3-carboxamide] gave a pEC50 [1] of 6.36 and a CC50 (cell toxicity CC50) of over 25000 nM.
In the case of `C[C@@H]1CCn2nc(-c3cnn(C)c3)c(C(=O)N[C@H]3N=C(c4ccccc4)c4cccc(F)c4NC3=O)c2O1` [Example 98, (5R)-N-[(3S)-9-fluoro-2-oxo-5-phenyl-1,3-dihydro-1,4-benzodiazepin-3-yl]-5-methyl-2-(1-methylpyrazol-4-yl)-6,7-dihydro-5H-pyrazolo[5,1-b][1,3]oxazine-3-carboxamide], the pEC50 [1] was 7.10 and the CC50 (cell toxicity CC50) was over 25000 nM.
For `CCn1cc(-c2nn3c(c2C(=O)N[C@H]2N=C(c4ccccc4)c4cccc(F)c4NC2=O)OCCC3)cn1` [Example 99, 2-(1-Ethylpyrazol-4-yl)-N-[(3S)-9-fluoro-2-oxo-5-phenyl-1,3-dihydro-1,4-benzodiazepin-3-yl]-6,7-dihydro-5H-pyrazolo[5,1-b][1,3]oxazine-3-carboxamide], the pEC50 [1] was 7.15 and the CC50 (cell toxicity CC50) was over 25000 nM.
Work on `CN(C)Cc1ccc(-c2nn3c(c2C(=O)N[C@H]2N=C(c4ccccc4)c4cccc(F)c4NC2=O)OCCC3)c(F)c1` [Example 100] yielded a pEC50 [1] of 7.12 and a CC50 (cell toxicity CC50) of over 25000 nM.
In the case of `O=C(N[C@H]1N=C(c2ccccc2)c2cccc(F)c2NC1=O)c1c(-c2ccc(CN3CCOCC3)cc2F)nn2c1OCCC2` [Example 101, 2-[2-Fluoro-4-(morpholin-4-ylmethyl)phenyl]-N-[(3S)-9-fluoro-2-oxo-5-phenyl-1,3-dihydro-1,4-benzodiazepin-3-yl]-6,7-dihydro-5H-pyrazolo[5,1-b][1,3]oxazine-3-carboxamide], the pEC50 [1] was 6.91 and the CC50 (cell toxicity CC50) was over 25000 nM.
For `CCN(CC)Cc1ccc(-c2nn3c(c2C(=O)N[C@H]2N=C(c4ccccc4)c4cccc(F)c4NC2=O)OCCC3)c(F)c1` [Example 102, 2-[4-(Diethylaminomethyl)-2-fluorophenyl]-N-[(3S)-9-fluoro-2-oxo-5-phenyl-1,3-dihydro-1,4-benzodiazepin-3-yl]-6,7-dihydro-5H-pyrazolo[5,1-b][1,3]oxazine-3-carboxamide], the pEC50 [1] was 6.87 and the CC50 (cell toxicity CC50) was over 25000 nM.
Work on `CC(C)n1cc(-c2nn3c(c2C(=O)N[C@H]2N=C(c4ccccc4)c4ccccc4NC2=O)OCCC3)cn1` [Example 103, N-[(3S)-2-oxo-5-phenyl-1,3-dihydro-1,4-benzodiazepin-3-yl]-2-(1-propan-2-ylpyrazol-4-yl)-6,7-dihydro-5H-pyrazolo[5,1-b][1,3]oxazine-3-carboxamide] yielded a pEC50 [1] of 6.88 and a CC50 (cell toxicity CC50) of over 25000 nM.
In the case of `CC1(Cn2cc(-c3nn4c(c3C(=O)N[C@H]3N=C(c5ccccc5)c5cccc(F)c5NC3=O)OCCC4)cn2)COC1` [Example 104, N-[(3S)-9-fluoro-2-oxo-5-phenyl-1,3-dihydro-1,4-benzodiazepin-3-yl]-2-[1-[(3-methyloxetan-3-yl)methyl]pyrazol-4-yl]-6,7-dihydro-5H-pyrazolo[5,1-b][1,3]oxazine-3-carboxamide], the pEC50 [1] was 6.89 and the CC50 (cell toxicity CC50) was over 25000 nM.
Compound `CC1CCOc2c(C(=O)N[C@H]3N=C(c4ccccc4)c4cccc(F)c4NC3=O)c(-c3ccccc3F)nn21` (stereo partly drawn) [Example 105, N-[(3S)-9-fluoro-2-oxo-5-phenyl-1,3-dihydro-1,4-benzodiazepin-3-yl]-2-(2-fluorophenyl)-7-methyl-6,7-dihydro-5H-pyrazolo[5,1-b][1,3]oxazine-3-carboxamide] has a pEC50 [1] of 7.32 and a CC50 (cell toxicity CC50) of over 25000 nM.
